The text below walks through data of publication PMC9832568, “Experimental and computational snapshots of C-C bond formation in a C-nucleoside synthase” (Open Biology, 2023).

Numbering of substitutions follows the chain as printed. Several values for one entry are separate records, joined by “and”; a condition that tells them apart may be missing. Equal values may be shown once.

For assay [1], the target named is T1, WT ForT (Streptomyces kaniharaensis, UniProt A0A5S9CYM0). Also on record: method as in PMID 31518483. The note with it: ForT-catalysed coupling to PRPP, two products with a new C-C bond; cited from earlier work.
Assay [2] concerns the target T1, WT ForT. In words: Substrate scope of WT ForT, LC-MS assay. It counts as biochemical. The following applies: MgPRPP. The procedure:
We assayed a series of pyrazoles as ForT substrates in which the extracyclic amine was replaced by hydrogen (PDA), nitro- (NPDA), methyl- (MPDA) and iodo- (IPDA) groups (figure 5a; electronic supplementary material, table S1). […] On the other hand, 4-amino-1H-pyrazole-3-carboxylate (APCA) can be coupled to PRPP by ForT to give two products containing a new C-C bond, albeit in less than 5% overall yield (figure 5b). In order to assess the importance of pyrazole substitution, we incubated 3-amino-1H-pyrazole-4-carboxylate (iso-APCA) (electronic supplementary material, table S2) and MgPRPP in the presence of ForT. […] Thus, the product was one of two possible C-N nucleotides.

The next assay has as its target T2, ForT/PRPP complex (Streptomyces kaniharaensis, UniProt A0A5S9CYM0).
T2 sequence (A0A5S9CYM0 1-341): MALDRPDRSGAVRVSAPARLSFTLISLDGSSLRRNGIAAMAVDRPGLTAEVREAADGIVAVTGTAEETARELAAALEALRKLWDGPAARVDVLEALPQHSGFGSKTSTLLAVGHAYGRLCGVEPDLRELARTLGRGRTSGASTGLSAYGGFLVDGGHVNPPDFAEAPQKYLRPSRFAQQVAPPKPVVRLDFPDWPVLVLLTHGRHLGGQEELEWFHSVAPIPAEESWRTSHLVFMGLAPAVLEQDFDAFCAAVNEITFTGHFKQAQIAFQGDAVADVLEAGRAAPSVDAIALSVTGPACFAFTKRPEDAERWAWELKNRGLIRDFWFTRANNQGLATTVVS
The experiment in a line: Binding of HPDA to the ForT/PRPP complex. The following applies: Li, unpublished.

In another assay the target is T3, S21A ForT variant (Streptomyces kaniharaensis, UniProt A0A5S9CYM0, S21A).
T3 sequence (A0A5S9CYM0 1-341 S21A): T2 sequence (A0A5S9CYM0 1-341) with S21A
The experiment in a line: biochemical.

The next assay addresses T4, S174A ForT variant (Streptomyces kaniharaensis, UniProt A0A5S9CYM0, S174A).
T4 sequence (A0A5S9CYM0 1-341 S174A): T2 sequence (A0A5S9CYM0 1-341) with S174A
In words: biochemical.

A further assay has as its target T5, K263A ForT variant (Streptomyces kaniharaensis, UniProt A0A5S9CYM0, K263A).
T5 sequence (A0A5S9CYM0 1-341 K263A): T2 sequence (A0A5S9CYM0 1-341) with K263A
In words: biochemical.

A further assay has as its target T6, T138V ForT variant (Streptomyces kaniharaensis, UniProt A0A5S9CYM0, T138V).
T6 sequence (A0A5S9CYM0 1-341 T138V): T2 sequence (A0A5S9CYM0 1-341) with T138V
The experiment in a line: biochemical.

In another assay the target is T7, E211A ForT variant (Streptomyces kaniharaensis, UniProt A0A5S9CYM0, E211A).
T7 sequence (A0A5S9CYM0 1-341 E211A): T2 sequence (A0A5S9CYM0 1-341) with E211A
The experiment in a line: biochemical.

The target in a further assay is T8, T138A ForT variant (Streptomyces kaniharaensis, UniProt A0A5S9CYM0, T138A).
T8 sequence (A0A5S9CYM0 1-341 T138A): T2 sequence (A0A5S9CYM0 1-341) with T138A
In words: biochemical.

In assay [3] the target is T1, WT ForT. The experiment in a line: ITC binding of PRPP to free enzyme, absence of Mg2+. The note with it: no Mg2+, room temperature. From the text:
We therefore extended these studies to obtain the binding affinity of APDA to the ForT/PRPP binary complex at room temperature using isothermal calorimetry (ITC) measurements. […] The omission of the catalytically important metal ion thereby avoids any heat generated by catalytic turnover ‘contaminating’ heat released by ligand binding. As a result, these ITC studies report only on the affinity of PRPP and APDA for the free WT enzyme and its PRPP binary complex, respectively.

For another assay, the target named is T9, L24A ForT variant (Streptomyces kaniharaensis, UniProt A0A5S9CYM0, L24A).
T9 sequence (A0A5S9CYM0 1-341 L24A): T2 sequence (A0A5S9CYM0 1-341) with L24A
The experiment in a line: biochemical.

On to `Nc1cn[nH]c1C(=O)O` [APCA, 4-amino-1H-pyrazole-3-carboxylate], for which the “overall yield of coupled products” value on WT ForT [1] is “less than 5%”.
As a reminder, the Kd is the concentration at which binding is half-saturated. The low end stands for a tighter complex, the high end for a looser complex. Take `O=C(O)c1n[nH]c(C(=O)O)c1O` [HPDA, 4-hydroxy-1H-pyrazole-3,5-dicarboxylic acid]: on WT ForT [2], the “substrate for the ForT-catalysed coupling with PRPP” value (“substrate” for short) is “is not a substrate”. In addition, the Kd on ForT/PRPP complex is 37 µM.
Take `O=C(O)c1n[nH]c(C(=O)O)c1I` [IPDA]: the “substrate” value on WT ForT [2] is “None of these pyrazole-dicarboxylates proved to be substrates”.
For `Cc1c(C(=O)O)n[nH]c1C(=O)O` [MPDA], the “substrate” value at WT ForT [2] was “None of these pyrazole-dicarboxylates proved to be substrates”.
As for `O=C(O)c1n[nH]c(C(=O)O)c1[N+](=O)[O-]` [NPDA], the “substrate” value on WT ForT [2] is listed as “None of these pyrazole-dicarboxylates proved to be substrates”.
For the compound `O=C(O)c1cc(C(=O)O)[nH]n1` [PDA], the “substrate” value on WT ForT [2] is “None of these pyrazole-dicarboxylates proved to be substrates”.
On to `O=P(O)(O)OC[C@H]1O[C@H](OP(=O)(O)OP(=O)(O)O)[C@H](O)[C@@H]1O` [PRPP, 5′-phosphoribose-1′-pyrophosphate], for which the Kd was found to be 0.35 ± 0.02 µM at S21A ForT variant; 6 ± 0.3 µM at S174A ForT variant; 20 ± 8 µM on K263A ForT variant; 0.7 ± 0.4 µM at T138V ForT variant; 0.95 ± 0.02 µM at E211A ForT variant; 6.7 ± 0.5 µM at T138A ForT variant. Moreover, the Kd on WT ForT [3] is 0.9 µM and 0.93 µM; on L24A ForT variant, 1.5 ± 0.1 µM.
In the case of `Nc1[nH]ncc1C(=O)O` [iso-APCA, 3-amino-1H-pyrazole-4-carboxylate], the “substrate” value at WT ForT [2] is given as “a new product had been formed”.
